Experimental data taken from patent publication US20250057873A1, “Intestinal Tumor Suppressor, PGE2 Production Inhibitor, and IL-22BP Production Promoter” (TOKYO UNIVERSITY OF SCIENCE FOUNDATION, priority 2021, published 2025).

Legend:
Dectin-1 [1] = biological target: T1, Dectin-1 (Mus musculus, UniProt Q6QLQ4); assay: Stimulation of Apc^Min/+ polyp-infiltrating leukocytes / CD11b+ cells with Curdlan, with or without laminarin pre-treatment, qPCR; format: cell-based; settings: polyp-infiltrating leukocytes from Apc^Min/+ mice, Curdlan 20 hours, qPCR
T1 construct: CD11b^+ cells and CD11c^+ cells were purified from colorectal polyps with autoMACS; endogenous in cells; host or cells: primary CD11b+/CD11c+ cells or all polyp-infiltrating cells from colorectal/intestinal polyps of WT (C57BL/6J, AOM-DSS) or Apc^Min/+ mice
T1 sequence (Q6QLQ4 1-244): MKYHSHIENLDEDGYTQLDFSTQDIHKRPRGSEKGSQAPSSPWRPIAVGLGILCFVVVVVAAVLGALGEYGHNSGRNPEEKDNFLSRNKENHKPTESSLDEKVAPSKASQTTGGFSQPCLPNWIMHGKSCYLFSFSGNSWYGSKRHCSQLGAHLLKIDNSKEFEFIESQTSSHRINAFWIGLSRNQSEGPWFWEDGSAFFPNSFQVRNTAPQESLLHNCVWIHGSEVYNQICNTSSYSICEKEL
Description: (§1) FIG. 5f: All polyp-infiltrating cells of the Apc^Min/+ mice were collected, and were stimulated with Curdlan for 20 hours, and then the expression of the genes involved in the PGE2 synthesis was measured by qPCR. A laminarin treatment was performed for 4 hours before the Curdlan treatment.
as §1, with “5g: Purified CD11b^+” for “5f: All”, “treatment. The data in (FIGS. 5a to 5g) are representative of two independent experiments and expressed as mean±SD. *p<0.05, **p<0.01, and ***p<0.001.” for “treatment.”
Infiltrating cells in mouse/human colorectal tumor/non-tumor tissues (2×10^5) or mouse/human colorectal tumor/non-tumor tissue pieces (3 mm×3 mm cut) were cultured with Dectin-1 ligands Curdlan, OXCA, or laminarin, or with PGE2 stimulation for 20 h at 37° C. under 5% CO2 in 96-well flat-bottomed plates (Falcon, Becton Dickinson) in a volume of 0.2 ml RPMI containing 10% FBS and 1% streptomycin plus penicillin. After the culture, cells or tissues were collected and mRNA expression of tumor- or anti-tumor-associated genes was measured by qPCR described in Quantitative reverse transcription PCR section described later. […]

DECTIN-1 [2] = biological target: T2, DECTIN-1 (Homo sapiens, UniProt Q9BXN2); assay: Curdlan stimulation of human CRC tissues or cancer-infiltrating leukocytes, qPCR; format: cell-based; settings: Curdlan 20 hours
T2 construct: endogenous in cells; host or cells: tumour-infiltrating cells and small tumour tissue pieces from surgical specimens of human CRC patients
T2 sequence (Q9BXN2 1-247): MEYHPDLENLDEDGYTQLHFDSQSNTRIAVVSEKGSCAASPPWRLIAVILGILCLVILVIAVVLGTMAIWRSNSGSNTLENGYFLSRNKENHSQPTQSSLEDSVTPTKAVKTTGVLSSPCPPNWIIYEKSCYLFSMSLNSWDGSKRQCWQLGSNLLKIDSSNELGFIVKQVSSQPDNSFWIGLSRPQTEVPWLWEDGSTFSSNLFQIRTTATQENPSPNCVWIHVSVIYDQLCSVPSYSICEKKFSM
Description: (§2) FIG. 7g: CRC samples were collected, and tumor-infiltrating cells were stimulated with Curdlan for 20 hours. In the case of the laminarin treatment, the cells were first treated with laminarin for 4 hours, and thereafter, were supplied with Curdlan and cultured. Expression of PGE2 synthesizing enzymes was determined by qPCR. Data are mean±SD of 3 wells.
as §2, with “7h:” for “7g:”, “tumor-infiltrating cells and normal tissue-infiltrating” for “tumor-infiltrating”, “CD33” for “PGE2 synthesizing enzymes”
FIG. 13c: Fresh CRC specimens were collected after surgery, and small pieces of tumor tissues were stimulated with Curdlan for 20 hours. In the case of the laminarin treatment, the tissues were first treated with laminarin for 4 hours, and then Curdlan was added to the cultured tissues. The expression of the PGE2 synthase was determined by qPCR. The data are expressed as mean SD of 3 wells. *p<0.05, **p<0.01, and ****p<0.0001. […]

Dectin-1 [3] = biological target: T1, Dectin-1; settings: autoimmune-prone; cited from earlier work

- expression of Ptges3, Ptgs1 and Ptgs2 (Dectin-1 [1]): significantly induced
- PGE2 synthase gene expression (DECTIN-1 [2]; CRC tissues or cancer-infiltrating leukocytes): induction
- expression of CD33 (DECTIN-1 [2]; tumor or normal tissue-infiltrating cells): upregulated
Substance: Curdlan
- disease induction in SKG mice (Dectin-1 [3]): evokes arthritis, spondyloarthritis and ileitis
